Assay results: patent US20100143995A1, “Process for Fermentive Preparation of Alcohols and Recovery of Product” (E. I. DU PONT DE NEMOURS AND COMPANY, priority 2008, published 2010)

Columns and labels:
[1] = Extraction of ethanol from an aqueous solution by ionic liquid (HPLC); assay type: physicochemical; conditions: ethanol in aqueous solution after mixing 3 mL of about 31 g/L ethanol with 150 microliters (5 vol %) ionic liquid, overnight equilibration, control 655
Description: (§1) Ethanol and isobutanol concentration in the solution was measured using HPLC as described above following thorough mixing and overnight equilibration of the contents of the vial.

[2] = Extraction of isobutanol from an aqueous solution by ionic liquid (HPLC); assay type: physicochemical; conditions: isobutanol in aqueous solution after mixing 3 mL of about 31 g/L isobutanol with 150 microliters (5 vol %) ionic liquid, overnight equilibration, control 436
Description: as §1

[3] = system: Saccharomyces cerevisiae (W1362 20A); assay: Glucose Uptake Index of Saccharomyces cerevisiae culture in YPD medium with ionic liquid added; conditions: 5% (v/v) ionic liquid added after 4 h, further 16 h at 30° C., GUI of control without ionic liquid 79.0 (Ex. 1-5) or 100 (Ex. 6-8)

Molecule	mM Ethanol [1] [mM]	GUI of Sample (Glucose Utilization Index in the presence of 5% (v/v) of the ionic liquid phase) [3]	mM isobutanol [2] [mM]	also measured
1-Butyl-3-methylimidazolium levulinate [Example 5]	596			
CCOCC[N+](C)(C)CCN1C(=O)CCC1C (centres unmarked) [Example 2, 1-(N,N,N-dimethyl(ethylethoxy)aminoethyl)-5-methyl-pyrrolidine-2-one hexafluoropropanesulfonate]		34.0		mM Ethanol ([1]; listed as [MeDMEEAP] [HFPS]): 656 mM; mM isobutanol ([2]; listed as [MeDMEEAP] [HFPS]): 422 mM
COCC[N+](C)(C)CCN1C(=O)CCC1C (centres unmarked) [Example 4, 1-(N,N,N-dimethyl(methylethoxy)aminoethyl)-5-methylpyrrolidin-2-one hexafluoropropanesulfonate]	645	21.9	423	
COCC[N+](C)(C)CCN1C(=O)CCC1C.O=S(=O)([N-]S(=O)(=O)C(F)(F)F)C(F)(F)F (centres unmarked) [Example 7, 1-(N,N,N-dimethyl(methylethoxy)aminoethyl)-5-methylpyrrolidone-2-one bis(trifluoromethane)sulfonamide]	643	100	389	
CCOCC[N+](C)(C)CCN1C(=O)CCC1C (centres unmarked) [Example 3, 1-(N,N,N-dimethyl(ethylethoxy)aminoethyl)-5-methyl-pyrrolidine-2-one bis(trifluoromethane)sulfonamide]		80.4		mM Ethanol ([1]; listed as [MeDMEEAP] [Tf2N]): 637 mM; mM isobutanol ([2]; listed as [MeDMEEAP] [Tf2N]): 398 mM
CC1CCC(=O)N1CC[N+](C)(C)CCO.O=S(=O)([N-]S(=O)(=O)C(F)(F)F)C(F)(F)F (centres unmarked) [Example 8, 1-(N,N,N-dimethyl(hydroxyethyl)aminoethyl)-5-methylpyrrolidone-2-one bis(trifluoromethane)sulfonamide]		89.3	417	
CCC[N+](C)(C)CCN1C(=O)CCC1C.O=S(=O)([N-]S(=O)(=O)C(F)(F)F)C(F)(F)F (centres unmarked) [Example 6, 1-(N,N,N-dimethylpropylaminoethyl)-5-methylpyrrolidone-2-one bis(trifluoromethane)sulfonamide]		100	387	
